According to US20200079819A1, “Use of a Vaccine Targeting a Cryptic Tert Epitope, for Treating Lung Cancer in a HLA-A*0201-Positive Never-Smoker or Light-Former Smoker Patient” (Vaxon Biotech, priority 2017, published 2020):
No end group written: not given here.

System: T cells specific for the TERT572 peptide
Assay: Immunomonitoring: IFNg ELISpot assay on PBMC of vaccinated patients
Type: in vivo, human

“Vx-001: vaccine composed of two nine-amino-acid peptides, TERT572 (SEQ ID No: 1) and TERT572Y (SEQ ID No: 2), administered separately with adjuvant Montanide ISA51 VG (chain 1 RLFFYRKSV; chain 2 YLFFYRKSV; not fully specified)” was tested, and the “Patients who mounted a TERT572 specific immune response” value (Vx-001 treated patients measured at least at W6, W18 or thereafter (22 of 75 patients)) was 29.3%, the “Frequency of vaccine-induced immune response” value (Vx-001 treated patients with natural immunity) was 15% and the “Patients who mounted a TERT572 specific immune response” value (Vx-001 treated patients with non-squamous (NSQ) NSCLC) was 36%. The “Patients who mounted a TERT572 specific immune response” value (Vx-001 treated patients with squamous (SQ) NSCLC) was 13.3% and the “Frequency of vaccine-induced immune response” value (Vx-001 treated patients without natural immunity) was 36.2%.
